In US20250059220A1, “SUBSTITUTED BENZOTHIOPHENE DERIVATIVES AND METHODS OF USE THEREOF” (Merck Sharp & Dohme LLC, priority 2021, published 2025) one finds IC50 data, which are given here for 35 molecules.

For experiment [1], the target named is human PTPN2 (1-387) (Homo sapiens (Human), UniProt P17706). Kind of experiment: Human PTPN2 Biochemical Assay. To be noted: DiFMUP substrate. The procedure, abridged:
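Fluorogenic DiFMUP hydrolysis (1 h, room temperature, read ex 360/em 460 nm) after 30 min compound preincubation with PTPN2 residues 1-387, in 50 mM Tris pH 7.4, 150 mM NaCl, 0.01% Tween20, 0.5 mM DTT. Effects scaled between buffer and enzyme controls, 4-parameter fit gives EC50.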

The target of experiment [2] is human PTPN1 (1-435) (Homo sapiens (Human), UniProt P18031). Put plainly: Human PTPN1 Biochemical Assay. To be noted: DiFMUP substrate, read-out: PTP1B IC50. The procedure, abridged:
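Read-out is DiFMUP hydrolysis fluorescence (360 nm excitation, 460 nm emission) after 1 h at room temperature, following 30 min enzyme–compound preincubation.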

pIC50: −log10 of the molar value.

Chain of human PTPN2 (1-387) (P17706 other isoform, or with tags, fused parts or gaps): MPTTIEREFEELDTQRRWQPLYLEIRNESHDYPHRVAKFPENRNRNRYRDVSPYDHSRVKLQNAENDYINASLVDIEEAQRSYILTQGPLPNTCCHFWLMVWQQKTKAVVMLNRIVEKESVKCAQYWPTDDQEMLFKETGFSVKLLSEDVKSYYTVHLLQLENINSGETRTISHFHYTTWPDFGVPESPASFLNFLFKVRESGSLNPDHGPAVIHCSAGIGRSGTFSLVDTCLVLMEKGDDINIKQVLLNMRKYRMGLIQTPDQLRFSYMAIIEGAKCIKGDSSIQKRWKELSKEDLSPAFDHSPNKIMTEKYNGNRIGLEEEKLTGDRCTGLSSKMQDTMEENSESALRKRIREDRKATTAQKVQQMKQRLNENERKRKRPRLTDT
Chain of human PTPN1 (1-435) (P18031 whole entry): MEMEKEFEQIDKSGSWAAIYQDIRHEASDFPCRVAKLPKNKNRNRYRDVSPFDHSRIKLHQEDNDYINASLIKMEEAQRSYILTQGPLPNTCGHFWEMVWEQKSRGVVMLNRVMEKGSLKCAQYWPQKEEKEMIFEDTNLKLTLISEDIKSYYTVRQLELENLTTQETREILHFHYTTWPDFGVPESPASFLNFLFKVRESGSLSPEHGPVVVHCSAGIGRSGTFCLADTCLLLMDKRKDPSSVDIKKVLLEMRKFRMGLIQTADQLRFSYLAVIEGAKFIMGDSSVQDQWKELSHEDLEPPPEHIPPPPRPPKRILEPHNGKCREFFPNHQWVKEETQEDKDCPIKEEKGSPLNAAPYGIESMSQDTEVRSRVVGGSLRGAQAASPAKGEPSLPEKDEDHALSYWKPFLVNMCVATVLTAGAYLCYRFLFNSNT

Turning to `CC(=O)N1CCC(CNC(=O)c2ccc3sc(C(F)(F)P(=O)(O)O)c(Br)c3c2)(C(F)(F)F)C1` (stereo not shown) [Compound 74], the pIC50 (usually the IC50 on a negative log10 scale, so that one unit is a factor of ten) in experiment [1] is 5.13; in experiment [2] it was 5.24.
The like results for `NC(=O)c1cc(C#CCCS(N)(=O)=O)c2sc(C(F)(F)P(=O)(O)O)c(Br)c2c1` [Compound 310] were, in that order, 7.16 and 7.11.
In the same order, the values of `Cn1cc(NC(=O)c2ccc3sc(C(F)(F)P(=O)(O)O)c(Br)c3c2)cn1` [Compound 96] are 5.89 and 6.03.
The like results for `O=C(N[C@@H]1[C@@H]2COC[C@@H]21)c1ccc2sc(C(F)(F)P(=O)(O)O)c(Br)c2c1` [Compound 57] were, in that order, 5.29 and 5.36.
With `CCCCOc1cc(C(N)=O)cc2c(Br)c(C(F)(F)P(=O)(O)O)sc12` [Compound 240], the pIC50 in experiment [1] is 7.01; in experiment [2], 6.95.
The like results for `O=C(NCc1cn2ccccc2n1)c1ccc2sc(C(F)(F)P(=O)(O)O)c(Br)c2c1` [Compound 142] were, in that order, 5.73 and 5.58.
The like results for `Cc1c(C(F)(F)P(=O)(O)O)sc2c(OCCCS(C)(=O)=O)cc(-c3c[nH]nn3)cc12` [Compound 451, (difluoro(3-methyl-7-(3-(methylsulfonyl)propoxy)-5-(1H-1,2,3-triazol-4-yl)benzo[b]thiophen-2-yl)methyl)phosphonic acid] were, in that order, 7.83 and 7.78.
In the same order, the values of `O=C(NCc1cccnn1)c1cc(O)c2sc(C(F)(F)P(=O)(O)O)c(Br)c2c1` [Compound 166] are 5.44 and 5.50.
Take `N#Cc1c(C(F)(F)P(=O)(O)O)sc2ccc(C(=O)NC3CC(F)(F)C3)cc12` [Compound 4]: the pIC50 was 5.92 in experiment [1] and 5.84 in experiment [2].
In the same order, the values of `NC(=O)c1cc(OCc2ccc(F)c(F)c2)c2sc(C(F)(F)P(=O)(O)O)c(Br)c2c1` [Compound 356] are 7.80 and 7.69.
In the same order, the values of `CC(NC(=O)c1ccc2sc(C(F)(F)P(=O)(O)O)c(Br)c2c1)c1cccc(OC(F)(F)F)c1` (stereo not shown) [Compound 102] are 5.61 and 5.54.
In the same order, the values of `O=C(Nc1ccccc1)c1ccc2sc(C(F)(F)P(=O)(O)O)c(C(F)(F)F)c2c1` [Compound 9, (difluoro(5-(phenylcarbamoyl)-3-(trifluoromethyl)benzo[b]thiophen-2-yl)methyl)phosphonic acid] are 5.67 and 5.66.
In the case of `NC(=O)c1cc(OCc2ccc(-c3ncccn3)cc2)c2sc(C(F)(F)P(=O)(O)O)c(Br)c2c1` [Compound 343], the pIC50 in experiment [1] is 7.71; in experiment [2], 6.89.
In the same order, the values of `O=C(NCc1cccnn1)c1cc(OCCCC(F)(F)F)c2sc(C(F)(F)P(=O)(O)O)c(Br)c2c1` [Compound 10, ((3-bromo-5-((pyridazin-3-ylmethyl)carbamoyl)-7-(4,4,4-trifluorobutoxy)benzo[b]thiophen-2-yl)difluoromethyl)phosphonic acid] are 8.24 and 8.34.
In the same order, the values of `O=C(NCc1ncc[nH]1)c1ccc2sc(C(F)(F)P(=O)(O)O)c(Br)c2c1` [Compound 174] are 5.38 and 5.07.
Take `NC(=O)c1cc(OCC(=O)Nc2c(F)cccc2F)c2sc(C(F)(F)P(=O)(O)O)c(Br)c2c1` [Compound 257]: the pIC50 in experiment [1] is 6.53; in experiment [2], 6.63.
The like results for `O=C(NC1(c2cncc(C(F)(F)F)c2)CC1)c1ccc2sc(C(F)(F)P(=O)(O)O)c(Br)c2c1` [Compound 111] were, in that order, 5.37 and 5.40.
For `N#Cc1c(C(F)(F)P(=O)(O)O)sc2c(OCC3CC3(F)F)cc(C(N)=O)cc12` (stereo not shown) [Compound 426], the pIC50 in experiment [1] was 7.99; in experiment [2] it was 7.86.
In the same order, the values of `NC(=O)c1cc(OCCC(F)(F)F)c2sc(C(F)(F)P(=O)(O)O)c(Br)c2c1` [Compound 271] are 6.47 and 6.40.
The like results for `NC(=O)c1cc(OC[C@@H]2C[C@@H]2F)c2sc(C(F)(F)P(=O)(O)O)c(Br)c2c1` [Compound 378] were, in that order, 7.04 and 7.13.
Turning to `C[C@@H](Cc1cccc(C(F)(F)F)c1)NC(=O)c1ccc2sc(C(F)(F)P(=O)(O)O)c(Br)c2c1` [Compound 69], the pIC50 is 5.38 in experiment [1] and 5.20 in experiment [2].
Turning to `NS(=O)(=O)CCCOc1cc(-c2nc[nH]n2)cc2c(Br)c(C(F)(F)P(=O)(O)O)sc12` [Compound 440], the pIC50 in experiment [1] and in experiment [2] was 8.60 in each case.
Consider `NC(=O)c1cc(OCCCC(F)(F)C(F)(F)F)c2sc(C(F)(F)P(=O)(O)O)c(Br)c2c1` [Compound 272], for which the results for the pIC50 in experiment [1] and in experiment [2] were 7.33 and 7.46, respectively.
With `CC(F)(F)CCOc1cc(C(N)=O)cc2c(Br)c(C(F)(F)P(=O)(O)O)sc12` [Compound 327], the pIC50 in experiment [1] was 6.58; in experiment [2], 6.63.
Consider `O=C(Nc1ccccc1-c1ccccc1)c1ccc2sc(C(F)(F)P(=O)(O)O)c(Br)c2c1` [Compound 62], for which the pIC50 is 5.79 in experiment [1] and 5.70 in experiment [2].
In the same order, the values of `CS(=N)(=O)Cc1cc(OCCCC(F)(F)F)c2sc(C(F)(F)P(=O)(O)O)c(Br)c2c1` (stereo not shown) [Compound 412] are 6.45 and 6.49.
The like results for `Cc1c(C(F)(F)P(=O)(O)O)sc2c(OCCCS(N)(=O)=O)cc(C(N)=O)cc12` [Compound 432] were, in that order, 6.94 and 6.93.
With `NC(=O)c1cc(OCc2ccc3c(c2)CCS3(=O)=O)c2sc(C(F)(F)P(=O)(O)O)c(Br)c2c1` [Compound 386], the pIC50 in experiment [1] was 7.77; in experiment [2] it was 7.59.
In the same order, the values of `O=C(NCCC1CC1)c1ccc2sc(C(F)(F)P(=O)(O)O)c(Br)c2c1` [Compound 59] are 6.26 and 5.86.
The like results for `CC(=O)NCc1cc(OCCCC(F)(F)F)c2sc(C(F)(F)P(=O)(O)O)c(Br)c2c1` [Compound 449, ((5-(acetamidomethyl)-3-bromo-7-(4,4,4-trifluorobutoxy)benzo[b]thiophen-2-yl)difluoromethyl)phosphonic acid] were, in that order, 5.92 and 6.09.
The like results for `O=C(Nc1ccc2c(Br)c(C(F)(F)P(=O)(O)O)sc2c1)c1ccccc1` [Compound 303, ((6-benzamido-3-bromobenzo[b]thiophen-2-yl)difluoromethyl)phosphonic acid] were, in that order, 4.61 and 5.57.
As for `Cc1ccc(CNC(=O)c2ccc3sc(C(F)(F)P(=O)(O)O)c(Br)c3c2)nn1` [Compound 137], the negative-log IC50 (pIC50) is 5.85 in experiment [1] and 5.96 in experiment [2].
The like results for `Cc1cc(C)n(-c2ccccc2NC(=O)c2ccc3sc(C(F)(F)P(=O)(O)O)c(Br)c3c2)n1` [Compound 118] were, in that order, 5.21 and 5.23.
With `NS(=O)(=O)CCCOc1cc(-c2cnn[nH]2)cc2c(Br)c(C(F)(F)P(=O)(O)O)sc12` [Compound 365], the pIC50 in experiment [1] and in experiment [2] was 8.60 in each case.
As to `NC(=O)c1cc(OCc2ccc(CS(N)(=O)=O)cc2)c2sc(C(F)(F)P(=O)(O)O)c(Br)c2c1` [Compound 376], the negative logarithm of the IC50 (pIC50) is 7.42 in experiment [1] and 7.49 in experiment [2].
